Among the data in ChEMBL document CHEMBL5113408, “Design, synthesis and antitumour activity of novel 5(6)-amino-benzimidazolequinones containing a fused morpholine” (Eur J Med Chem, 2022) are Activity values, retold here.

Activity calls are given as the source filed them. The rule behind the calls is not given here.

In data set [1] the test system is MGC-803. The data set is described as follows: Induction of mitochondrial membrane depolarization in human MGC-803 cells incubated for 48 hrs by flow cytometry analysis. In kind it is functional, cell-based. The conditions noted are these: dose 1-4 µM, DDE = dose-dependent effect. In general terms: Flow cytometry measures light scatter and fluorescence of single cells or particles in a stream.

In data set [2] the test system is HGC-27. The data set is described as follows: Induction of DNA damage in human HGC-27 cells assessed as increase in gamma-H2AX generation incubated for 24 hrs by immunofluorescence analysis. Format: functional, cell-based.
In data set [3] the test system is HGC-27. The data set can be described thus: Activation of ROS/JNK signalling in human HGC-27 cells assessed as increase in p-MKK4 level by Western blot analysis. In kind it is cell-based. The note with it: filed as activator, dose 1-4 µM, DDE = dose-dependent effect. Background: Immunoblotting shows a protein as a band on a membrane.
The subject of data set [4] is MGC-803. The data set can be described thus: Induction of DNA damage in human MGC-803 cells assessed as increase in gamma-H2AX generation incubated for 48 hrs by Western blot analysis. Format: functional, cell-based. The conditions noted are these: DDE = dose-dependent effect.
Data set [5] deals with MGC-803. The data set can be described thus: Induction of DNA damage in human MGC-803 cells assessed as increase in gamma-H2AX generation incubated for 24 hrs by immunofluorescence analysis. Format: functional, cell-based.
For data set [6], the system named is HGC-27. The data set can be described thus: Induction of cell cycle arrest in human HGC-27 cells assessed as accumulation of cells at G2/M phase at 4 uM incubated for 36 hrs by PI staining based flow cytometry analysis (reference value: 26.2%). In kind it is functional.
Data set [7] deals with MGC-803. The data set can be described thus: Activation of ROS/JNK signalling in human MGC-803 cells assessed as increase in p-ASK1 level by Western blot analysis. In kind it is cell-based. The note with it: filed as activator, dose 1-4 µM, DDE = dose-dependent effect.
Data set [8] relates to MGC-803. The data set can be described thus: Induction of apoptosis in human MGC-803 cells assessed as increase in cleaved caspase 7 protein expression level at 1 to 4 uM incubated for 48 hrs by Western blot analysis. In kind it is functional, cell-based. The conditions noted are these: dose 1-4 µM.
The test system of data set [9] is MGC-803. The data set is described as follows: Induction of apoptosis in human MGC-803 cells assessed as decrease in caspase 3 protein expression level at 1 to 4 uM incubated for 48 hrs by Western blot analysis. The note with it: dose 1-4 µM. Format: functional, cell-based.
Data set [10] concerns HGC-27. The data set can be described thus: Induction of DNA damage in human HGC-27 cells assessed as increase in p-ATM generation incubated for 48 hrs by Western blot analysis. Format: functional, cell-based. The conditions noted are these: DDE = dose-dependent effect.
Data set [11] has as its system HGC-27. The data set is described as follows: Induction of cell cycle arrest in human HGC-27 cells assessed as decrease in p-cdc2 level at 1 to 4 uM by Western blot analysis. Format: functional, cell-based. The conditions noted are these: dose 1-4 µM.
Data set [12] in a line: Toxicity in BALB/c mouse xenografted with human MGC-803 cells assessed as effect on kidney at 10 to 20 mg/kg, ip administered once every two days measured after 15 days by H and E staining based assay. In kind it is organism-based. The conditions noted are these: in vivo, 360 h, dose 10-20 mg/kg, time 15 day.
Data set [13] has as its system MGC-803. The data set can be described thus: Induction of ROS generation in human MGC-803 cells at 1 to 4 uM incubated for 24 hrs by flow cytometry analysis. Format: functional, cell-based. The conditions noted are these: dose 1-4 µM.
Data set [14] deals with HGC-27. The data set is described as follows: Induction of apoptosis in human HGC-27 cells assessed as increase in cleaved caspase 7 protein expression level at 1 to 4 uM incubated for 48 hrs by Western blot analysis. Format: functional, cell-based. The note with it: dose 1-4 µM.
Data set [15] deals with HGC-27. The data set is described as follows: Antiproliferative activity against human HGC-27 cells assessed as inhibition of cell growth at 0.25 to 8 uM by SRB assay. Format: functional, cell-based. The note with it: dose 0.25-8 µM, time 24-72 hrs, TDE = time-dependent effect.
The test system of data set [16] is MGC-803. The data set is described as follows: Induction of cell cycle arrest in human MGC-803 cells assessed as decrease in p-cdc2 level at 1 to 4 uM by Western blot analysis. Format: functional, cell-based. The note with it: dose 1-4 µM.
For data set [17], the system named is MGC-803. The data set can be described thus: Antitumor activity against human MGC-803 cells xenografted with BALB/c mouse assessed as vacuolated cytoplasm at 10 to 20 mg/kg, ip administered once every two days. In kind it is functional, organism-based. The note with it: dose 10-20 mg/kg.
Data set [18] deals with HGC-27. The data set is described as follows: Induction of DNA damage in human HGC-27 cells assessed as increase in p-Chk generation incubated for 48 hrs by Western blot analysis. The note with it: DDE = dose-dependent effect. In kind it is functional, cell-based.
The test system of data set [19] is MGC-803. The data set can be described thus: Induction of DNA damage in human MGC-803 cells assessed as increase in p-ATM generation incubated for 48 hrs by Western blot analysis. Format: functional, cell-based. The conditions noted are these: DDE = dose-dependent effect.
Data set [20] has as its system MGC-803. The data set is described as follows: Induction of apoptosis in human MGC-803 cells assessed as decrease in caspase 9 protein expression level at 1 to 4 uM incubated for 48 hrs by Western blot analysis. Format: functional, cell-based. The note with it: dose 1-4 µM.

Take `Cc1ccc(NC2=CC(=O)c3nc4n(c3C2=O)[C@H]2OC[C@@H](O)[C@H]2OC4)cc1C`: the Activity entry in data set [1] was “Dde”; in data set [3], “Dde”; in data set [4] it was “Dde”; in data set [6] it was 33.3%; in data set [7], “Dde”; in data set [10], “Dde”. Moreover, the Activity entry in [12] is “Non-Toxic”; in [15], “Tde”; in [18] it was “Dde”; in data set [19], “Dde”. Also, the outcome in data set [2], in data set [5], in data set [8], in data set [9], in data set [11] and in data set [13] was Active. In addition, the outcome in data set [14], in data set [16], in data set [17] and in data set [20] was Active.
